Data on seven molecules can be found in US7834025B2, “Substituted indolyl-alkyl-amino-derivatives as inhibitors of histone deacetylase” (Janssen Pharmaceutica N.V., priority 2006, dated 2010).

As usually defined, the solubility is the dissolved amount per volume that the medium holds. Read a high solubility as much dissolved substance. As a reminder, the melting point is the temperature of the solid-liquid transition.

The conditions of data set [1]: human, 15 min, 5 μM.
Data set [2] in a line: Kinetic solubility in aqueous media (C.3.a). It is filed as physicochemical. To be noted: kinetic from dmso stock, aqueous buffer pH 7.4. As for the experimental part: (§1) The solubility of a compound measures the ability of a compound to stay in solution. In the first method, the ability of a compound to stay in aqueous solution upon dilution (see example C.3.a) is measured. DMSO-stock solutions are diluted with a single aqueous buffer solvent in different consecutive steps. Mixtures are then scanned in the BD Gentest Solubility Scanner for the occurrence of precipitation. In the second method the solubility of a compound at different pH's can be measured with the use of a chemiluminescent nitrogen detector (see example C.3.b).
DMSO-stock solutions from 5000-9.8 μM (½ dilutions) are made in DMSO in a 96 well stock solution plate (200 μl per well). After each dilution the samples are mixed. Aliquots of these DMSO solutions (2 μl) are then transferred into 2 other 96 well buffer plates, containing 200 μl per well aqueous buffer. Each of the buffer plates contains either aqueous buffer pH 7.4 or aqueous buffer pH 4.0. After the last dilution the buffer plates are mixed and the samples are stabilized at room temperature for ½ hour. Dilution is done in duplicate for each compound to exclude occasional errors. Mixtures are then scanned in the BD Gentest Solubility Scanner for the occurrence of precipitation. Based on the absence/presence of precipitate in the mixtures the kinetic solubility is calculated by interpolation. Ranking is performed into the 3 classes.

The test system of data set [3] is human A2780 ovarian carcinoma cells. Put plainly: Antiproliferative activity on A2780 cells (MTT). It is filed as cell-based. As to conditions: 96 h, four days of incubation, read-out: Cellular activity pIC50 C.2. (converted). As to the method:
Cellular activity of the compounds of formula (I) was determined on A2780 tumour cells using a […] assay for cell toxicity or survival (Mosmann Tim, Journal of Immunological Methods 65: 55-63, 1983)(see example C.2).
All compounds tested were dissolved in DMSO and further dilutions were made in culture medium. Final DMSO concentrations never exceeded 0.1% (v/v) in cell proliferation assays. Controls contained A2780 cells and DMSO without compound and blanks contained DMSO but no cells. MTT was dissolved at 5 mg/ml in PBS. A glycine buffer comprised of 0.1 M glycine and 0.1 M NaCl buffered to pH 10.5 with NaOH (1 N) was prepared (all reagents were from Merck).
The human A2780 ovarian carcinoma cells (a kind gift from Dr. T. C. Hamilton [Fox Chase Cancer Centre, Pa., USA]) were cultured in RPMI 1640 medium supplemented with 2 mM L-glutamine, 50 μg/ml gentamicin and 10% fetal calf serum. Cells were routinely kept as monolayer cultures at 37° C. in a humidified 5% CO2 atmosphere. Cells were passaged once a week using a trypsin/EDTA solution at a split ratio of 1:40. All media and supplements were obtained from Life Technologies. Cells were free of mycoplasma contamination as determined using the Gen-Probe Mycoplasma Tissue Culture kit (supplier: BioMérieux).
Cells were seeded in NUNC™ 96-well culture plates (Supplier: Life Technologies) and allowed to adhere to the plastic overnight. Densities used for plating were 1500 cells per well in a total volume of 200 μl medium. After cell adhesion to the plates, medium was changed and drugs and/or solvents were added to a final volume of 200 μl. Following four days of incubation, medium was replaced by 200 μl fresh medium and cell density and viability was assessed using an MTT-based assay. […] For each sample, the mean value for cell growth (in absorbance units) was expressed as a percentage of the mean value for cell growth of the control. […] Herein the effects of test compounds are expressed as pIC50 (the negative log value of the IC50-value)(see Table F-2).

For data set [4], the target named is histone deacetylase (HeLa nuclear extracts). In words: In vitro assay for inhibition of histone deacetylase (Fluor de Lys, HeLa nuclear extracts). Format: biochemical. To be noted: HeLa nuclear extracts 60 μg/ml, 75 μM Fluor de Lys substrate. The source says: The in vitro assay for inhibition of histone deacetylase (see example C.1) measures the inhibition of HDAC enzymatic activity obtained with the compounds of formula (I).
The HDAC Fluorescent Activity Assay/Drug Discovery Kit of Biomol (cat. No: AK-500-0001) was used. The HDAC Fluorescent Activity Assay is based on the Fluor de Lys (Fluorogenic Histone deAcetylase Lysyl) substrate and developer combination. The Fluor de Lys substrate, comprises an acetylated lysine side chain. Deacetylation of the substrate sensitizes the substrate so that, in the second step, treatment with the Fluor de Lys developer produces a fluorophore.
HeLa nuclear extracts (supplier: Biomol) were incubated at 60 μg/ml with 75 μM of substrate. The Fluor de Lys substrate was added in a buffer containing 25 mM Tris, 137 mM NaCl, 2.7 mM KCl and 1 mM MgCl2.6H2O at pH 7.4. After 30 min, 1 volume of the developer was added. The fluorophore was excited with 355 nm light and the emitted light (450 nm) was be detected on a fluorometric plate reader. For each experiment, controls (containing HeLa nuclear extract and buffer), a blank incubation (containing buffer but no HeLa nuclear extract) and samples (containing compound dissolved in DMSO and further diluted in buffer and HeLa nuclear extract) were run in parallel. In first instance, compounds were tested at a concentration of 10^−5M. […] All sample were tested 4 times. In each test the blank value was subtracted from both the control and the sample values. The control sample represented 100% of substrate deacylation. For each sample the fluorescence was expressed as a percentage of the mean value of the controls. […] Herein the effects of test compounds are expressed as pIC50 (the negative log value of the IC50-value) (see Table F-2).

The nature of data set [5]: Solubility with chemiluminescent nitrogen detector (C.3.b). It is filed as physicochemical. As to conditions: pH 2.3, aqueous buffer. As for the experimental part: as §1
The solubility of a compound, at different pH's, can also be measured with the use of a chemiluminescent nitrogen detector (see Table F-2).

In data set [6] the test system is p21 promoter reporter A2780 clone tumour in nude mice. In words: p21 induction capacity, in vivo method (tumour fluorescence). As to conditions: s.c. A2780 reporter clone, 20-40 mpk orally or intravenously daily during 6 days. As for the experimental part:
The last method is an in vivo method wherein mice are used for screening the pharmaceutical activity of a compound. The above described stably transformed tumour cells can be administered to mice in an amount sufficient to effect production of a tumour. After the tumour cells had sufficient time to form a tumour, a potentially active compound can be administered to the animals and the effect of said compound on the tumour cells is evaluated by measuring the expression of the reporter gene. Incubation with pharmaceutical active compounds will result in an increase of reporter gene expression compared to the control levels (see example C.6.b.)
A selected clone was injected subcutaneous (10^7 cells/200 μl) into the flank of nude mice and a calliper measurable tumour was obtained after 12 days. From day 12 on, animals were dosed, orally or intraveinally, daily during 6 days with solvent and 20-40 mpk compound (4-10 animals each). Tumours were evaluated for fluorescence by the in-house developed Automated Whole Body Imaging System (Fluorescent stereomicroscope type Olympus® SZX12 equipped with a GFP filter and coupled to a CCD camera type JAI® CV-M90 controlled by a software package based on the IMAQ Vision Software from National Instruments®).

Data set [7] can be described thus: Metabolic stability in liver microsomes. As to conditions: reference compounds; 15 min incubation with microsomes, 5 μM.

≈ marks a conversion by molar mass, not a printed value. Like-named read-outs stand apart in the source and are kept apart here.

Take `COc1cc(N)c(Cl)cc1C(=O)NC1CCN(CCCOc2ccc(F)cc2)CC1OC` (stereo not drawn) [Cisapride]: the “% metabolism” value in data set [1] is 45%.
For `CC(NCC1CCN(c2ncc(C(=O)NO)cn2)CC1)c1cn(C)c2ccccc12` (stereo not drawn) [Compound 1], the melting point is 296 °C. In data set [2], this molecule gave a solubility at 0.5 h of 7.8 µM (≈ 3.19 µg/mL). Also, in data set [3], the IC50 was 31.6 nM. Further, in data set [4], the “Enzymatic activity pIC50 C.1.” value is given as 9.0.
With `Cn1cc(C2CCN(CC3CCN(c4ncc(C(=O)NO)cn4)CC3)C2)c2ccccc21` (stereo not drawn) [Compound 2], the melting point worked out at 231 °C. The solubility at 0.5 h in data set [2] was determined as 9.4 µM (≈ 4.08 µg/mL). The IC50 in data set [3] was 50.1 nM. Also, the “Enzymatic activity pIC50 C.1.” value in data set [4] stood at 8.9. Besides, the solubility in data set [5] amounted to 1350 µg/mL (≈ 3.11 mM). Also, in data set [6], the “Tumour fluorescence (reporter gene expression) versus control” value was “increased fluorescence as compared to control”.
Molecule `Cn1cc(C2CCCN(CC3CCN(c4ncc(C(=O)NO)cn4)CC3)C2)c2ccccc21` (stereo not drawn) [Compound 3] registered a melting point of 224 °C. The molecule further displayed a solubility at 0.5 h in data set [2] of 15.6 µM (≈ 7 µg/mL). In addition, the IC50 in data set [3] was 31.6 nM. The “Enzymatic activity pIC50 C.1.” value in data set [4] is 8.3.
For `Cn1cc(C2CCN(CC3CCN(c4ccc(C(=O)NO)cn4)CC3)C2)c2ccccc21` (stereo not drawn) [Compound 4], the melting point is 70 °C.
Same read-out and setting: the result for `Cn1cc(C2CCN(CC3CCN(c4ccc(C(=O)Nc5ccccc5N)cn4)CC3)C2)c2ccccc21` (stereo not drawn) [Compound 5] reads 90 °C.
Take `CCCO` [propanol]: the “% metabolism” value in data set [7] worked out at 25%.
